Experimental data published in US11434205B2, “Substituted imidazole carboxylate derivatives and the use thereof” (priority 2018, dated 2022).
Like-named read-outs stand apart in the source and are kept apart here.

Key:
11-β-hydroxylase = biological target: T1, 11-β-hydroxylase (Rattus norvegicus, UniProt P15393); details: compared with etomidate; cited from earlier work
T1 sequence (P15393 25-499): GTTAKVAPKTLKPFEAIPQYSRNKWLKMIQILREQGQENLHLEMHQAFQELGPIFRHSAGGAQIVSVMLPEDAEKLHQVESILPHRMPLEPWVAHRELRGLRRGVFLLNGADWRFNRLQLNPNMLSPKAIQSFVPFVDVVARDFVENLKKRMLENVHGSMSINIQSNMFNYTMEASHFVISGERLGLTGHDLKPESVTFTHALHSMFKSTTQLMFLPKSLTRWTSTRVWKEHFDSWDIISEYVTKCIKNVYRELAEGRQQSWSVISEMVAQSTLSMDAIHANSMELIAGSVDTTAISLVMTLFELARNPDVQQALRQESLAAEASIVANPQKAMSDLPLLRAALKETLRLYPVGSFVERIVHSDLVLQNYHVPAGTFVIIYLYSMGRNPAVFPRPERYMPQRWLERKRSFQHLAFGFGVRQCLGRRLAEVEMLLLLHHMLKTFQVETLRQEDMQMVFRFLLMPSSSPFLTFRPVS

[1] = tested on: secretion of cortisol, H295R cell line; test: cells; format: cell-based; details: for EC50: read-out: EC50 (Cortisol)
Description: (§1) The Effects of the Compounds on Adrenocortical Function In Vitro Test
(§2) Then secretion of the cortisol and corticosterone in the supernatant, was measured using HPLC-MS/MS method to determine whether the compounds of the present invention had adrenotoxic potential.

[2] = tested on: secretion of corticosterone, H295R cell line; test: cells; format: cell-based; details: for EC50: read-out: EC50 (Corticosterone)
Description: as §1, §2

rats [3] = tested on: rats
Description: Adult male Sprague-Dawley rats (250-300 g) were selected for the experiment. […] The anesthesia effects of the compounds were assessed in rats using a LORR assay and a period >30 s was considered as an indicator of general anesthesia. Then the up and down method was used to determine 50% effective dose (ED50). The drugs were administered through the tail vein of rats in a volume of 0.6 mL and at a rate of 0.1 mL/s.

rats [4] = tested on: rats; remark: listed apart in the source
Description: Pharmacological Effects of the Compounds on Continuous Infusion in Rats
Adult male Sprague-Dawley rats with body weight ranging from 250 to 300 gm were selected for continuous infusion test. […] Time to recovery of righting reflex from stopping infusion, and time to fully awake from stopping infusion were recorded.

rats [5] = test: Loss of righting reflexes (LORR) assay in rats, ED50 by up and down method; format: in vivo, rat; details: Rattus norvegicus, tail vein, class symbols
Summary of the method: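 Adult male Sprague-Dawley rats (250-300 g) dosed i.v. via tail vein at 0.1 mL/s. Anesthesia scored as loss of righting reflex lasting >30 s; ED50 derived by up-and-down method.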

rats [6] = format: in vivo, rat; details: rats of the MAP/HR figures, 2×ED50, tail vein
rats [7] = test: Pharmacological characteristics at equivalent doses (2×ED50) in rats; details: 2×ED50, tail vein; for Adverse reactions: Red urine (incidence): DMSO solution (DMSO alone 10/10); for Onset time: time of LORR; for Adverse reactions: Tremor (incidence): animals affected/animals
Summary of the method: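 Adult male Sprague-Dawley rats (250-300 g, n=8) received each drug at twice its ED50 via tail vein (0.6 mL at 0.1 mL/s). Onset of anesthesia taken as time to LORR.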

rats [8] = format: in vivo, rat; details: rats of the MAP/HR figures, 2×ED50, tail vein; same value in min
Summary of the method: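 Rats implanted with telemetry (left ventricular and abdominal aortic catheters, ECG leads) at least one week before recording; compounds given via lateral tail-vein catheter. MAP and HR sampled every 15 s for 30 min before and after dosing to judge hemodynamic stability.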

[9] = H295R cell line, 0.1-10000 nM, HPLC-MS/MS, Table D3
[10] = H295R cell line, 0.1-10000 nM, HPLC-MS/MS, Table E3
[11] = H295R, 0.1-10000 nM, HPLC-MS/MS
[12] = continuous tail vein infusion at 2×MIR, LORR maintained 1 hour, Table C4
[13] = continuous tail vein infusion at 2×MIR, LORR maintained 1 hour, Table E4
[14] = continuous tail vein infusion at 2×MIR, LORR maintained 1 hour, Table D4

Structure (SMILES) | Cortisol as an indicator to determine the presence of inhibition [1, 10] | Cortisol as an indicator to determine the presence of inhibition ([1]; H295R, Table C3) | Corticosterone as an indicator to determine the presence of inhibition [2, 10] | Corticosterone as an indicator to determine the presence of inhibition ([2]; H295R, Table C3) | Approximate therapeutic index (rats [3]) | Minimal lethal dose (rats [3]) | ED50 (rats [5]) | EC50 ([1]; Homo sapiens, NCI-H295R) | EC50 ([2]; Homo sapiens, NCI-H295R) | recovery time of the test animals' righting reflex (rats [6]) | Righting reflex duration (rats [7]) | Adverse reactions: Red urine (incidence) (rats [7]) | Onset time (rats [7]) | recovery time of the test animals' righting reflex (rats [8]) | Adverse reactions: Tremor (incidence) (rats [7]) | further results
C[C@H](c1ccccc1)n1cncc1C(=O)O [Etomidate acid, etomidate acid, reference compound] | 0 | 0 | 0 | 0 | – | – | – | – | – | – | – | – | – | – | – | inhibitory effect on 11-β-hydroxylase (11-β-hydroxylase): little inhibitory effect; Cortisol as an indicator to determine the presence of inhibition [1, 9]: 0; EC50 [1, 9]: > 10 µM; EC50 [1, 10]: > 10 µM; EC50 [1, 11]: > 10 µM; Cortisol as an indicator to determine the presence of inhibition ([1]; H295R, Table A3): 0; Cortisol as an indicator to determine the presence of inhibition ([1]; H295R, Table B3): 0; Corticosterone as an indicator to determine the presence of inhibition [2, 9]: 0; EC50 [2, 9]: > 10 µM; EC50 [2, 10]: > 10 µM; EC50 [2, 11]: > 10 µM; Corticosterone as an indicator to determine the presence of inhibition ([2]; H295R, Table A3): 0; Corticosterone as an indicator to determine the presence of inhibition ([2]; H295R, Table B3): 0
CSCOC(=O)c1cncn1[C@H](C)c1ccccc1 [Compound C26] | – | 0 | – | 0 | >11 | >6 mg/kg | 0.5 to 1 mg/kg | > 10 µM | > 10 µM | 137 s | 2.11 ± 1.02 min | Red urine (8/8) | 0.30 ± 0.09 min | 2.28 min | – | Onset time (rats [4]; [12]): 2 to 3 min; Recovery time after stopping infusion (rats [4]; [12]): 9 to 13 min; Types and incidence of adverse reactions (rats [4]; [12]): Tremor (2/6); Adverse reactions: Muscle twitching (incidence) (rats [7]): Muscle twitching (1/8),
CCCCC(CCCC)OC(=O)c1cncn1[C@H](C)c1ccccc1 [Compound C25] | – | 0 | – | 0 | >10 | >4 mg/kg | 0.1 to 0.5 mg/kg | > 1 µM | > 1 µM | 125 s | 2.03 ± 1.32 min | (8/8) | 0.72 ± 0.20 min | 2.08 min | Tremor (6/8), Red urine | Onset time (rats [4]; [12]): 3 to 4 min; Recovery time after stopping infusion (rats [4]; [12]): 12 to 15 min
CC#CCOC(=O)c1c(F)ncn1[C@H](C)c1ccccc1 [Compound E35] | 0 | – | 0 | – | >17 | >4 mg/kg | 0.1 to 0.5 mg/kg | > 10 µM | > 10 µM | 151 s | 2.30 ± 0.80 min | urine (8/8) | 0.32 ± 0.11 min | 2.52 min | (4/8), Red | Onset time (rats [4]; [13]): 2 to 3 min; Recovery time after stopping infusion (rats [4]; [13]): 10 to 13 min; Types and incidence of adverse reactions (rats [4]; [13]): Tongue stretching (2/6), Tremor (3/6)
C[C@H](c1ccccc1)n1cncc1C(=O)OCC1CC(F)(F)C1 [Compound A12] | – | – | – | – | >16 | >10 mg/kg | 0.5 to 1 mg/kg | > 1 µM | – | 254 s | 4.04 ± 1.65 min | (8/8) | 0.16 ± 0.06 min | 4.23 min | – | Recovery time after stopping infusion (rats [4]; after 1 hour infusion at 2×MIR): 13 to 16 min; Adverse reactions: Tremor (incidence) (rats [4]; continuous infusion 2×MIR): Tremor (4/6); Onset time (rats [4]; emulsion, continuous infusion at 2×MIR): 3 to 4 min; Cortisol as an indicator to determine the presence of inhibition ([1]; H295R, Table A3): 0; Corticosterone as an indicator to determine the presence of inhibition ([2]; H295R, Table A3): 0; Adverse reactions: Restlessness (incidence) (rats [7]): Restlessness (2/8), Red urine
CC(=O)C(C)(C)OC(=O)c1c(F)ncn1[C@H](C)c1ccccc1 [Compound E6] | 0 | – | 0 | – | >24 | >10 mg/kg | 0.5 to 1 mg/kg | > 10 µM | > 10 µM | 174 s | 2.73 ± 1.08 min | urine (8/8) | 0.13 ± 0.04 min | 2.90 min | (1/8), Red | Onset time (rats [4]; [13]): 2 to 3 min; Recovery time after stopping infusion (rats [4]; [13]): 9 to 11 min; Types and incidence of adverse reactions (rats [4]; [13]): Tremor (4/6)
C#CC(C)(C)OC(=O)c1cncn1[C@H](C)c1ccccc1 [Compound D15] | – | – | – | – | >10 | >4 mg/kg | 0.1 to 0.5 mg/kg | > 10 µM | > 10 µM | 225 s | 2.25 ± 0.79 min | (7/8) | 0.21 ± 0.10 min | 3.75 min | Tremor (2/8), Red urine | Onset time (rats [4]; [14]): 2 to 3 min; Recovery time after stopping infusion (rats [4]; [14]): 10 to 11 min; Types and incidence of adverse reactions (rats [4]; [14]): Tremor (3/6); Cortisol as an indicator to determine the presence of inhibition [1, 9]: 0; Corticosterone as an indicator to determine the presence of inhibition [2, 9]: 0
